From patent US20100267561A1, “HERBICIDAL PYRIDAZINONE DERIVATIVES” (priority 2007, published 2010)

Tests used:
Type in all cases: in vivo
[1] = test system: wild oat (Avena fatua); assay: Test C pre-/postemergence plant response; details: Preemergence
Description: (§1) Seeds of plant species selected from annual bluegrass (Poa annua), blackgrass (Alopecurus myosuroides), canola (Brassica rapa), downy bromegrass (Bromus tectorum), green foxtail (Setaria viridis), Italian ryegrass (Lolium multiflorum), canarygrass (Phalaris minor), pigweed (Amaranthus retroflexus), spring barley (Hordeum vulgare), spring wheat (Triticum aestivum), wild mustard (Sinapis arvensis), wild oat (Avena fatua), windgrass (Apera spica-venti), winter barley (Hordeum vulgare), and winter wheat (Triticum aestivum) were planted and treated preemergence with test chemicals formulated in a non-phytotoxic solvent mixture which included a surfactant. At the same time, plants selected from these crop and weed species were treated with postemergence applications of some of the test chemicals formulated in the same manner. Plants ranged in height from 2 to 18 cm (1- to 4-leaf stage) for postemergence treatments.
(§2) Treated plants and controls were maintained in a controlled growth environment for 15 to 25 days after which time all species were compared to controls and visually evaluated. Plant response ratings, summarized in Table C, are based on a scale of 0 to 100 where 0 is no effect and 100 is complete control. A dash (-) response means no test result.

[2] = test system: pigweed (Amaranthus retroflexus); assay: Test C pre-/postemergence plant response; details: Preemergence
Description: as §1, §2

[3] = test system: blackgrass (Alopecurus myosuroides); assay: Test C pre-/postemergence plant response; details: Preemergence
Description: as §1, §2

[4] = test system: canarygrass (Phalaris minor); assay: Test C pre-/postemergence plant response; details: Preemergence
Description: as §1, §2

[5] = test system: Italian ryegrass (Lolium multiflorum); assay: Test C pre-/postemergence plant response; details: Preemergence
Description: as §1, §2

[6] = test system: windgrass (Apera spica-venti); assay: Test C pre-/postemergence plant response; details: Preemergence
Description: as §1, §2

[7] = test system: winter wheat (Triticum aestivum); assay: Test C pre-/postemergence plant response; details: Preemergence
Description: as §1, §2

[8] = test system: winter barley (Hordeum vulgare); assay: Test C pre-/postemergence plant response; details: Preemergence
Description: as §1, §2

[9] = test system: downy bromegrass (Bromus tectorum); assay: Test C pre-/postemergence plant response; details: Preemergence
Description: as §1, §2

[10] = test system: green foxtail (Setaria viridis); assay: Test C pre-/postemergence plant response; details: Preemergence
Description: as §1, §2

[11] = test system: spring wheat (Triticum aestivum); assay: Test C pre-/postemergence plant response; details: Preemergence
Description: as §1, §2

[12] = test system: annual bluegrass (Poa annua); assay: Test C pre-/postemergence plant response; details: Preemergence
Description: as §1, §2

[13] = test system: wild mustard (Sinapis arvensis); assay: Test C pre-/postemergence plant response; details: Preemergence
Description: as §1, §2

[14] = test system: spring barley (Hordeum vulgare); assay: Test C pre-/postemergence plant response; details: Preemergence
Description: as §1, §2

[15] = test system: pigweed (Amaranthus retroflexus); assay: Test A pre-/postemergence plant response
In short: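 Soil: loam blended with sand. Formulation: non-phytotoxic solvent mixture plus surfactant, applied as preemergence directed soil spray and as postemergence spray. Scoring: visual, 0 no effect to 100 complete control, roughly 10 days post-treatment in greenhouse.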

[16] = 8 g ai/ha, scale 0 to 100 (0 no effect, 100 complete control)
[17] = 16 g ai/ha, scale 0 to 100 (0 no effect, 100 complete control)
[18] = 31 g ai/ha, scale 0 to 100 (0 no effect, 100 complete control)
[19] = 62 g ai/ha, scale 0 to 100, 0 no effect, 100 complete control
[20] = Postemergence, 31 g ai/ha, 0 to 100 scale, 0 no effect, 100 complete control
[21] = Postemergence, 125 g ai/ha, 0 to 100 scale, 0 no effect, 100 complete control
[22] = Preemergence, 31 g ai/ha, 0 to 100 scale, 0 is no effect, 100 is complete control
[23] = Preemergence, 125 g ai/ha, 0 to 100 scale (0 no effect, 100 complete control)

Cc1cc(-c2ccc(Cl)cc2)nn1-c1c(OC(=O)c2cccs2)cnn(C)c1=O [Compound 52]
Plant response rating, Oat, Wild [1, 16]: 0 | Plant response rating, Oat, Wild [1, 17]: 40 | Plant response rating, Oat, Wild [1, 18]: 60 | Plant response rating, Oat, Wild [1, 19]: 60 | Plant response rating, Pigweed [2, 16]: 0 | Plant response rating, Pigweed [2, 17]: 0 | Plant response rating, Pigweed [2, 18]: 0 | Plant response rating, Pigweed [2, 19]: 0 | Plant response rating, Blackgrass [3, 16]: 40 | Plant response rating, Blackgrass [3, 17]: 60 | Plant response rating, Blackgrass [3, 18]: 95 | Plant response rating, Blackgrass [3, 19]: 95 | Plant response rating, Canarygrass [4, 16]: 0 | Plant response rating, Canarygrass [4, 17]: 65 | Plant response rating, Canarygrass [4, 18]: 90 | Plant response rating, Canarygrass [4, 19]: 95 | Plant response rating, Ryegrass, Italian [5, 16]: 0 | Plant response rating, Ryegrass, Italian [5, 17]: 65 | Plant response rating, Ryegrass, Italian [5, 18]: 90 | Plant response rating, Ryegrass, Italian [5, 19]: 100 | Plant response rating, Windgrass [6, 16]: 0 | Plant response rating, Windgrass [6, 17]: 0 | Plant response rating, Windgrass [6, 18]: 70 | Plant response rating, Windgrass [6, 19]: 70 | Plant response rating, Wheat, Winter [7, 16]: 0 | Plant response rating, Wheat, Winter [7, 17]: 0 | Plant response rating, Wheat, Winter [7, 18]: 40 | Plant response rating, Wheat, Winter [7, 19]: 65 | Plant response rating, Barley, Winter [8, 16]: 0 | Plant response rating, Barley, Winter [8, 17]: 0 | Plant response rating, Barley, Winter [8, 18]: 0 | Plant response rating, Barley, Winter [8, 19]: 50 | Plant response rating, Bromegrass, Downy [9, 16]: 0 | Plant response rating, Bromegrass, Downy [9, 17]: 0 | Plant response rating, Bromegrass, Downy [9, 18]: 15 | Plant response rating, Bromegrass, Downy [9, 19]: 80 | Plant response rating, Foxtail, Green [10, 16]: 75 | Plant response rating, Foxtail, Green [10, 17]: 100 | Plant response rating, Foxtail, Green [10, 18]: 100 | Plant response rating, Foxtail, Green [10, 19]: 100 | Plant response rating, Wheat, Spring [11, 16]: 0 | Plant response rating, Wheat, Spring [11, 17]: 0 | Plant response rating, Wheat, Spring [11, 18]: 65 | Plant response rating, Wheat, Spring [11, 19]: 90 | Plant response rating, Bluegrass [12, 16]: 0 | Plant response rating, Bluegrass [12, 17]: 0 | Plant response rating, Bluegrass [12, 18]: 10 | Plant response rating, Bluegrass [12, 19]: 10 | Plant response rating, Mustard, Wild [13, 16]: 0 | Plant response rating, Mustard, Wild [13, 17]: 0 | Plant response rating, Mustard, Wild [13, 18]: 0 | Plant response rating, Mustard, Wild [13, 19]: 0 | Plant response rating, Barley, Spring [14, 16]: 0 | Plant response rating, Barley, Spring [14, 17]: 0 | Plant response rating, Barley, Spring [14, 18]: 40 | Plant response rating, Barley, Spring [14, 19]: 60 | Plant response rating, Pigweed [15, 20]: 0 | Plant response rating, Pigweed [15, 21]: 0 | Plant response rating, Pigweed [15, 22]: 0 | Plant response rating, Pigweed [15, 23]: 0

Cc1cc(-c2ccc(Cl)cc2)nn1-c1c(OC(=O)Oc2ccccc2)cnn(C)c1=O [Compound 54]
Plant response rating, Oat, Wild [1, 16]: 0 | Plant response rating, Oat, Wild [1, 17]: 0 | Plant response rating, Oat, Wild [1, 18]: 40 | Plant response rating, Oat, Wild [1, 19]: 70 | Plant response rating, Pigweed [2, 16]: 0 | Plant response rating, Pigweed [2, 17]: 0 | Plant response rating, Pigweed [2, 18]: 0 | Plant response rating, Pigweed [2, 19]: 0 | Plant response rating, Blackgrass [3, 16]: 35 | Plant response rating, Blackgrass [3, 17]: 70 | Plant response rating, Blackgrass [3, 18]: 100 | Plant response rating, Blackgrass [3, 19]: 100 | Plant response rating, Canarygrass [4, 16]: 0 | Plant response rating, Canarygrass [4, 17]: 70 | Plant response rating, Canarygrass [4, 18]: 80 | Plant response rating, Canarygrass [4, 19]: 95 | Plant response rating, Ryegrass, Italian [5, 16]: 0 | Plant response rating, Ryegrass, Italian [5, 17]: 20 | Plant response rating, Ryegrass, Italian [5, 18]: 100 | Plant response rating, Ryegrass, Italian [5, 19]: 100 | Plant response rating, Windgrass [6, 16]: 0 | Plant response rating, Windgrass [6, 17]: 0 | Plant response rating, Windgrass [6, 18]: 60 | Plant response rating, Windgrass [6, 19]: 75 | Plant response rating, Wheat, Winter [7, 16]: 0 | Plant response rating, Wheat, Winter [7, 17]: 0 | Plant response rating, Wheat, Winter [7, 18]: 35 | Plant response rating, Wheat, Winter [7, 19]: 50 | Plant response rating, Barley, Winter [8, 16]: 0 | Plant response rating, Barley, Winter [8, 17]: 10 | Plant response rating, Barley, Winter [8, 18]: 15 | Plant response rating, Barley, Winter [8, 19]: 75 | Plant response rating, Bromegrass, Downy [9, 16]: 0 | Plant response rating, Bromegrass, Downy [9, 17]: 0 | Plant response rating, Bromegrass, Downy [9, 18]: 15 | Plant response rating, Bromegrass, Downy [9, 19]: 80 | Plant response rating, Foxtail, Green [10, 16]: 40 | Plant response rating, Foxtail, Green [10, 17]: 98 | Plant response rating, Foxtail, Green [10, 18]: 100 | Plant response rating, Foxtail, Green [10, 19]: 100 | Plant response rating, Wheat, Spring [11, 16]: 0 | Plant response rating, Wheat, Spring [11, 17]: 25 | Plant response rating, Wheat, Spring [11, 18]: 65 | Plant response rating, Wheat, Spring [11, 19]: 98 | Plant response rating, Bluegrass [12, 16]: 0 | Plant response rating, Bluegrass [12, 17]: 0 | Plant response rating, Bluegrass [12, 18]: 0 | Plant response rating, Bluegrass [12, 19]: 25 | Plant response rating, Mustard, Wild [13, 17]: 0 | Plant response rating, Mustard, Wild [13, 18]: 0 | Plant response rating, Mustard, Wild [13, 19]: 0 | Plant response rating, Barley, Spring [14, 16]: 0 | Plant response rating, Barley, Spring [14, 17]: 0 | Plant response rating, Barley, Spring [14, 18]: 25 | Plant response rating, Barley, Spring [14, 19]: 70 | Plant response rating, Pigweed [15, 20]: 0 | Plant response rating, Pigweed [15, 21]: 0 | Plant response rating, Pigweed [15, 22]: 0 | Plant response rating, Pigweed [15, 23]: 0

Cc1cc(-c2ccc(Cl)cc2)nn1-c1c(OS(=O)(=O)c2ccccc2)cnn(C)c1=O [Compound 35]
Plant response rating, Oat, Wild [1, 16]: 0 | Plant response rating, Oat, Wild [1, 17]: 0 | Plant response rating, Oat, Wild [1, 18]: 30 | Plant response rating, Oat, Wild [1, 19]: 70 | Plant response rating, Pigweed [2, 16]: 0 | Plant response rating, Pigweed [2, 18]: 0 | Plant response rating, Pigweed [2, 19]: 0 | Plant response rating, Blackgrass [3, 16]: 0 | Plant response rating, Blackgrass [3, 17]: 30 | Plant response rating, Blackgrass [3, 18]: 75 | Plant response rating, Blackgrass [3, 19]: 75 | Plant response rating, Canarygrass [4, 16]: 0 | Plant response rating, Canarygrass [4, 17]: 0 | Plant response rating, Canarygrass [4, 18]: 50 | Plant response rating, Canarygrass [4, 19]: 90 | Plant response rating, Ryegrass, Italian [5, 16]: 0 | Plant response rating, Ryegrass, Italian [5, 17]: 35 | Plant response rating, Ryegrass, Italian [5, 18]: 98 | Plant response rating, Ryegrass, Italian [5, 19]: 100 | Plant response rating, Windgrass [6, 16]: 0 | Plant response rating, Windgrass [6, 18]: 15 | Plant response rating, Windgrass [6, 19]: 80 | Plant response rating, Wheat, Winter [7, 16]: 0 | Plant response rating, Wheat, Winter [7, 17]: 10 | Plant response rating, Wheat, Winter [7, 18]: 25 | Plant response rating, Wheat, Winter [7, 19]: 70 | Plant response rating, Barley, Winter [8, 16]: 0 | Plant response rating, Barley, Winter [8, 18]: 0 | Plant response rating, Barley, Winter [8, 19]: 50 | Plant response rating, Bromegrass, Downy [9, 16]: 0 | Plant response rating, Bromegrass, Downy [9, 17]: 0 | Plant response rating, Bromegrass, Downy [9, 18]: 50 | Plant response rating, Bromegrass, Downy [9, 19]: 60 | Plant response rating, Foxtail, Green [10, 16]: 15 | Plant response rating, Foxtail, Green [10, 18]: 40 | Plant response rating, Foxtail, Green [10, 19]: 100 | Plant response rating, Wheat, Spring [11, 16]: 0 | Plant response rating, Wheat, Spring [11, 17]: 20 | Plant response rating, Wheat, Spring [11, 18]: 50 | Plant response rating, Wheat, Spring [11, 19]: 65 | Plant response rating, Bluegrass [12, 16]: 0 | Plant response rating, Bluegrass [12, 17]: 0 | Plant response rating, Bluegrass [12, 18]: 0 | Plant response rating, Bluegrass [12, 19]: 0 | Plant response rating, Mustard, Wild [13, 18]: 0 | Plant response rating, Mustard, Wild [13, 19]: 0 | Plant response rating, Barley, Spring [14, 16]: 0 | Plant response rating, Barley, Spring [14, 17]: 0 | Plant response rating, Barley, Spring [14, 18]: 20 | Plant response rating, Barley, Spring [14, 19]: 65 | Plant response rating, Pigweed [15, 20]: 0 | Plant response rating, Pigweed [15, 21]: 0 | Plant response rating, Pigweed [15, 22]: 0 | Plant response rating, Pigweed [15, 23]: 30
